Source: patent US20120245044A1, “METHODS OF DETERMINING CHEMOTHERAPY RESPONSE IN CANCER” (TRANSLATIONAL GENOMICS RESEARCH INSTITUTE, priority 2011, published 2012)

How the values were obtained:
Type in all cases: cell-based
[1] = system: H69-GLI2 versus H69-wt SCLC cells; experiment: Drug dose response, cell viability after 72 hours; conditions: single agent, experiment H69-GLI1 and H69-GLI2 versus H69-wt (FIG. 1A/1B)
Protocol: (§1) (A) Drug-dose response experiment in H69-GLI1 and H69-GLI2 versus H69-wt for cisplatin. […] (C) Drug-dose response experiment in H69-GLI1 versus H69-wt for cisplatin. Methods. Two SCLC cell lines, H69 and H526, were transduced with a GLI1 over-expressing (o/e) vector (Kasper et al, 2007) to create two lines expressing the gene: H69-GLI1 and H526-GLI1. GLI1 expression was verified by qRT-PCR. Cellular proliferation was measured over a 96-hour period. To study the drug dose response, GLI1 o/e and parental lines were treated with single-agent or combination dosing of cisplatin and etoposide, and cell viability was assessed after 72 hours. Relative GLI1 expression was compared with cisplatin response in four additional SCLC cell lines (H146, […], […]). Gene expression analysis was performed on H69-GLI1 and H69 parental cells, with two replicates for each, using Agilent (Agilent Technologies, Santa Clara, Calif.) 44K expression arrays. Data was normalized and analyzed using Genespring software (Agilent Technologies, Santa Clara, Calif.).

[2] = system: H69-GLI1 versus H69-wt SCLC cells; experiment: Drug dose response, cell viability after 72 hours, GLI1 over-expressing vs parental line
Protocol: as §1

[3] = system: H526-GLI1 versus H526-wt SCLC cells; experiment: as above; conditions: H526-GLI1 compared to H526-wt
Protocol: Methods. Two SCLC cell lines, H69 and H526, were transduced with a GLI1 over-expressing (o/e) vector (Kasper et al, 2007) to create two lines expressing the gene: H69-GLI1 and H526-GLI1. GLI1 expression was verified by qRT-PCR. Cellular proliferation was measured over a 96-hour period. To study the drug dose response, GLI1 o/e and parental lines were treated with single-agent or combination dosing of cisplatin and etoposide, and cell viability was assessed after 72 hours. Relative GLI1 expression was compared with cisplatin response in four additional SCLC cell lines (H146, […], […]). Gene expression analysis was performed on H69-GLI1 and H69 parental cells, with two replicates for each, using Agilent (Agilent Technologies, Santa Clara, Calif.) 44K expression arrays. Data was normalized and analyzed using Genespring software (Agilent Technologies, Santa Clara, Calif.).

[4] = single agent, experiment H69-GLI1 and H69-GLI2 versus H69-wt (FIG. 1A/1B), viability after 72 hours

Structure (SMILES) | fold change between H69-GLI2 and H69-wt in drug-dose response [1] | fold change between H69-GLI1 and H69-wt in drug-dose response [2, 4] | change in cisplatin resistance [3] | shift in cisplatin resistance ([2]; H69-GLI1 compared to H69-wt, drug dose response, FIG. 1) | fold change between H69-GLI1 and H69-wt in drug-dose response ([2]; experiment H69-GLI1 versus H69-wt only (FIG. 1C))
COc1cc([C@@H]2c3cc4c(cc3[C@@H](O[C@@H]3O[C@@H]5CO[C@@H](C)O[C@H]5[C@H](O)[C@H]3O)[C@H]3COC(=O)[C@H]23)OCO4)cc(OC)c1O [etoposide] | 1.76 fold | 4.55 fold | – | – | –
N.N.[Cl][Pt][Cl] [cisplatin, cis-diamminedichloroplatinum(II)] | 1.21 fold | 1.76 fold | no significant change | ≥ 1.5 fold | 2.77 fold
